Laboratory results taken from PubChem BioAssay AID248 (DTP/NCI, 2004).
Where “and” joins values, the source holds several entries; their conditions need not be identical. Equal entries are not always repeated. Inconclusive results and toxic doses are left out. Cut-off read from the data, not from the text of the source: active = T/C of 150% or more; inactive = T/C below 125%.

System: L1210 leukemia ip in BDF1 mice, survival T/C
Assay: NCI In Vivo Anticancer Drug Screen. Data for tumor model L1210 Leukemia (intraperitoneal) in B6D2F1 (BDF1) mice
Settings: higher = longer survival
Method in brief: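 Antitumor effect is assessed in tumor-bearing animals. Survival in the compound arm is compared with a vehicle-dosed control arm and expressed as their quotient.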

Measured: T/C

CN(C)c1nc(N(C)C)nc(N(C)C)n1
inactive: endpoint: mean survival time, dose: 2.5 mg/kg/injection, schedule: Q03HX040 (ip), vehicle: acetone 103 % of control | endpoint: mean survival time, dose: 4.8 mg/kg/injection, schedule: Q01DX Z (ip), vehicle: other 94 % of control | endpoint: mean survival time, dose: 5.0 mg/kg/injection, schedule: Q03HX040 (ip), vehicle: acetone 108 % of control | endpoint: mean survival time, dose: 5.0 mg/kg/injection, schedule: Q06HX020 (ip), vehicle: acetone 110 % of control | endpoint: mean survival time, dose: 5.5 mg/kg/injection, schedule: Q01DX009 (ip), vehicle: saline with Tween-80 104 % of control and 116 % of control | endpoint: mean survival time, dose: 8.5 mg/kg/injection, schedule: Q04DX002 (ip), vehicle: saline with Tween-80 93 % of control and 96 % of control | endpoint: mean survival time, dose: 9.4 mg/kg/injection, schedule: Q01DX009 (ip), vehicle: saline with Tween-80 92 % of control | endpoint: mean survival time, dose: 9.4 mg/kg/injection, schedule: Q01DX010 (ip), vehicle: saline 88 % of control and 92 % of control | endpoint: mean survival time, dose: 9.5 mg/kg/injection, schedule: Q01DX Z (ip), vehicle: other 100 % of control | endpoint: mean survival time, dose: 10.0 mg/kg/injection, schedule: Q03HX040 (ip), vehicle: acetone 106 % of control | endpoint: mean survival time, dose: 10.0 mg/kg/injection, schedule: Q06HX020 (ip), vehicle: acetone 110 % of control | endpoint: mean survival time, dose: 10.0 mg/kg/injection, schedule: Q12HX010 (ip), vehicle: acetone 100 % of control | endpoint: mean survival time, dose: 11.0 mg/kg/injection, schedule: Q01DX009 (ip), vehicle: saline with Tween-80 110 % of control and 118 % of control | endpoint: mean survival time, dose: 12.5 mg/kg/injection, schedule: Q01DX009 (ip), vehicle: saline with Tween-80 108 % of control | endpoint: mean survival time, dose: 17.0 mg/kg/injection, schedule: Q04DX002 (ip), vehicle: saline with Tween-80 100 % of control and 105 % of control | endpoint: mean survival time, dose: 18.8 mg/kg/injection, schedule: Q01DX009 (ip), vehicle: saline with Tween-80 103 % of control | endpoint: mean survival time, dose: 18.8 mg/kg/injection, schedule: Q01DX009 (ip), vehicle: saline 95 % of control and 92 % of control | endpoint: mean survival time, dose: 18.8 mg/kg/injection, schedule: Q01DX010 (ip), vehicle: saline 90 % of control and 91 % of control | endpoint: mean survival time, dose: 19.0 mg/kg/injection, schedule: Q01DX Z (ip), vehicle: other 101 % of control | endpoint: mean survival time, dose: 20.0 mg/kg/injection, schedule: Q01DX005 (ip), vehicle: acetone 101 % of control and 103 % of control | endpoint: mean survival time, dose: 20.0 mg/kg/injection, schedule: Q01DX009 (ip), vehicle: Klucel (hydroxypropylcellulose) (HPC) 99 % of control | endpoint: mean survival time, dose: 20.0 mg/kg/injection, schedule: Q01DX009 (ip), vehicle: saline with Tween-80 100 % of control | endpoint: mean survival time, dose: 20.0 mg/kg/injection, schedule: Q03HX040 (ip), vehicle: acetone 107 % of control | endpoint: mean survival time, dose: 20.0 mg/kg/injection, schedule: Q06HX020 (ip), vehicle: acetone 106 % of control | endpoint: mean survival time, dose: 20.0 mg/kg/injection, schedule: Q12HX010 (ip), vehicle: acetone 104 % of control | endpoint: mean survival time, dose: 25.0 mg/kg/injection, schedule: Q01DX009 (ip), vehicle: saline with Tween-80 98 % of control | endpoint: mean survival time, dose: 30.0 mg/kg/injection, schedule: Q03HX040 (ip), vehicle: saline 110 % of control | endpoint: mean survival time, dose: 34.0 mg/kg/injection, schedule: Q04DX002 (ip), vehicle: saline with Tween-80 100 % of control and 101 % of control | endpoint: mean survival time, dose: 37.5 mg/kg/injection, schedule: Q01DX009 (ip), vehicle: saline with Tween-80 98 % of control | endpoint: mean survival time, dose: 37.5 mg/kg/injection, schedule: Q01DX009 (ip), vehicle: saline 94 % of control and 95 % of control | endpoint: mean survival time, dose: 37.5 mg/kg/injection, schedule: Q01DX010 (ip), vehicle: saline 95 % of control and 91 % of control | endpoint: mean survival time, dose: 38.0 mg/kg/injection, schedule: Q01DX Z (ip), vehicle: other 96 % of control | endpoint: mean survival time, dose: 40.0 mg/kg/injection, schedule: Q01DX005 (ip), vehicle: acetone 100 % of control and 110 % of control | endpoint: mean survival time, dose: 40.0 mg/kg/injection, schedule: Q01DX009 (ip), vehicle: Klucel (hydroxypropylcellulose) (HPC) 101 % of control | endpoint: mean survival time, dose: 40.0 mg/kg/injection, schedule: Q01DX009 (ip), vehicle: saline with Tween-80 101 % of control | endpoint: mean survival time, dose: 40.0 mg/kg/injection, schedule: Q06HX020 (ip), vehicle: acetone 118 % of control | endpoint: mean survival time, dose: 40.0 mg/kg/injection, schedule: Q12HX010 (ip), vehicle: acetone 107 % of control | endpoint: mean survival time, dose: 50.0 mg/kg/injection, schedule: Q01DX001 (ip), vehicle: saline with Tween-80 97 % of control | endpoint: mean survival time, dose: 50.0 mg/kg/injection, schedule: Q01DX009 (ip), vehicle: saline with Tween-80 107 % of control | endpoint: mean survival time, dose: 50.0 mg/kg/injection, schedule: Q12HX010 (ip), vehicle: saline 96 % of control | endpoint: mean survival time, dose: 68.0 mg/kg/injection, schedule: Q04DX002 (ip), vehicle: saline with Tween-80 104 % of control and 105 % of control | endpoint: mean survival time, dose: 75.0 mg/kg/injection, schedule: Q01DX009 (ip), vehicle: saline with Tween-80 111 % of control | endpoint: mean survival time, dose: 75.0 mg/kg/injection, schedule: Q01DX009 (ip), vehicle: saline 94 % of control and 91 % of control | endpoint: mean survival time, dose: 75.0 mg/kg/injection, schedule: Q01DX010 (ip), vehicle: saline 98 % of control and 92 % of control | endpoint: mean survival time, dose: 80.0 mg/kg/injection, schedule: Q01DX005 (ip), vehicle: acetone 104 % of control and 106 % of control | endpoint: mean survival time, dose: 80.0 mg/kg/injection, schedule: Q01DX009 (ip), vehicle: Klucel (hydroxypropylcellulose) (HPC) 100 % of control | endpoint: mean survival time, dose: 80.0 mg/kg/injection, schedule: Q01DX009 (ip), vehicle: saline with Tween-80 105 % of control | endpoint: mean survival time, dose: 80.0 mg/kg/injection, schedule: Q12HX010 (ip), vehicle: acetone 115 % of control | endpoint: mean survival time, dose: 85.0 mg/kg/injection, schedule: Q01DX001 (ip), vehicle: other 94 % of control | endpoint: mean survival time, dose: 100.0 mg/kg/injection, schedule: Q01DX001 (ip), vehicle: saline with Tween-80 98 % of control | endpoint: mean survival time, dose: 100.0 mg/kg/injection, schedule: Q01DX009 (ip), vehicle: saline with Tween-80 97 % of control | endpoint: mean survival time, dose: 100.0 mg/kg/injection, schedule: Q12HX010 (ip), vehicle: saline 98 % of control | endpoint: mean survival time, dose: 125.0 mg/kg/injection, schedule: Q01DX001 (ip), vehicle: other 109 % of control | endpoint: mean survival time, dose: 130.0 mg/kg/injection, schedule: Q01DX001 (ip), vehicle: other 101 % of control | endpoint: mean survival time, dose: 136.0 mg/kg/injection, schedule: Q04DX002 (ip), vehicle: saline with Tween-80 96 % of control and 98 % of control | endpoint: mean survival time, dose: 150.0 mg/kg/injection, schedule: Q01DX009 (ip), vehicle: saline with Tween-80 124 % of control | endpoint: mean survival time, dose: 150.0 mg/kg/injection, schedule: Q01DX009 (ip), vehicle: saline 93 % of control and 102 % of control | endpoint: mean survival time, dose: 160.0 mg/kg/injection, schedule: Q01DX009 (ip), vehicle: Klucel (hydroxypropylcellulose) (HPC) 107 % of control and 87 % of control | endpoint: mean survival time, dose: 160.0 mg/kg/injection, schedule: Q01DX009 (ip), vehicle: saline with Tween-80 109 % of control | endpoint: mean survival time, dose: 195.0 mg/kg/injection, schedule: Q01DX001 (ip), vehicle: other 94 % of control | endpoint: mean survival time, dose: 200.0 mg/kg/injection, schedule: Q01DX001 (ip), vehicle: saline with Tween-80 101 % of control | endpoint: mean survival time, dose: 200.0 mg/kg/injection, schedule: Q01DX009 (ip), vehicle: saline with Tween-80 124 % of control | endpoint: mean survival time, dose: 240.0 mg/kg/injection, schedule: Q01DX009 (ip), vehicle: Klucel (hydroxypropylcellulose) (HPC) 86 % of control | endpoint: mean survival time, dose: 250.0 mg/kg/injection, schedule: Q01DX001 (ip), vehicle: other 100 % of control | endpoint: mean survival time, dose: 272.0 mg/kg/injection, schedule: Q04DX002 (ip), vehicle: saline with Tween-80 100 % of control and 105 % of control | endpoint: mean survival time, dose: 400.0 mg/kg/injection, schedule: Q01DX001 (ip), vehicle: saline with Tween-80 98 % of control | endpoint: mean survival time, dose: 500.0 mg/kg/injection, schedule: Q01DX001 (ip), vehicle: other 112 % of control | endpoint: median survival time, dose: 18.8 mg/kg/injection, schedule: Q01DX009 (ip), vehicle: saline 100 % of control and 114 % of control | endpoint: median survival time, dose: 37.5 mg/kg/injection, schedule: Q01DX009 (ip), vehicle: saline 100 % of control and 114 % of control | endpoint: median survival time, dose: 75.0 mg/kg/injection, schedule: Q01DX009 (ip), vehicle: saline 100 % of control and 111 % of control | endpoint: median survival time, dose: 150.0 mg/kg/injection, schedule: Q01DX009 (ip), vehicle: saline 111 % of control and 121 % of control

CC(C)(O)c1cccc2c(C(C)(C)O)cccc12
inactive: endpoint: mean survival time, dose: 50.0 mg/kg/injection, schedule: Q01DX001 (ip), vehicle: carboxymethylcellulose (CMC) 102 % of control | endpoint: mean survival time, dose: 100.0 mg/kg/injection, schedule: Q01DX001 (ip), vehicle: carboxymethylcellulose (CMC) 102 % of control | endpoint: mean survival time, dose: 200.0 mg/kg/injection, schedule: Q01DX001 (ip), vehicle: carboxymethylcellulose (CMC) 94 % of control | endpoint: mean survival time, dose: 400.0 mg/kg/injection, schedule: Q01DX001 (ip), vehicle: carboxymethylcellulose (CMC) 105 % of control
